For 18 molecules, ED50 and MIC results are on record in patent US4199573A, “Diazaborines and drug compositions” (Grunenthal GmbH, priority 1978, dated 1980).

Assay [1] has as its system E. coli. In words: Mice infected with E. coli, CD50 (Tables I, II, IV). The format is in vivo. The note with it: Escherichia coli. How it is done:
(§1) Typical of the compounds of the class are very active antimicrobial agents, especially against gram-negative bacteria, in particular E. coli. For instance, the following values of the CD50 were determined on administering the listed compounds of formula I, in which R1 is as defined in the following Table I, Antimicrobial Activity, R2 and R3 are hydrogen and wherein R4 is sodium to mice infected with the bacteria shown.
(§2) CD50 = Dose in mg of compound/kg of mouse body weight which cures th
(§3) infection in 50% of the animals

For assay [2], the system named is Proteus mirabilis. Kind of assay: Mice infected with Proteus mirabilis, CD50 (Table II). In kind it is in vivo. Particulars: read-out: DC50 (the source's name).
From the text: as §2, §3

Assay [3] concerns Proteus vulgaris. Kind of assay: Mice infected with Proteus vulgaris, CD50 (Table II). Particulars: read-out: DC50 (the source's name). In kind it is in vivo.
From the text: as §2, §3

Assay [4] concerns Klebsiella aeruginosa. Kind of assay: Mice infected with Klebsiella aeruginosa, CD50 (Table II). The note with it: read-out: DC50 (the source's name). The format is in vivo.
From the text: as §2, §3

Assay [5] has as its system E. coli. Kind of assay: Minimum inhibitory concentration, E. coli. In kind it is cell-based. Particulars: Escherichia coli.
Assay [6] deals with Proteus mirabilis. Kind of assay: Minimum inhibitory concentration, Proteus mirabilis. In kind it is cell-based.
In assay [7] the test system is Proteus vulgaris. Kind of assay: Minimum inhibitory concentration, Proteus vulgaris. The format is cell-based.
In assay [8] the test system is Klebsiella aeruginosa. Kind of assay: Minimum inhibitory concentration, Klebsiella aeruginosa. The format is cell-based.
In assay [9] the test system is S. typhimurium. Kind of assay: Minimum inhibitory concentration, S. typhimurium. The format is cell-based. Particulars: Salmonella enterica.
For assay [10], the system named is B. proteus. In words: Mice infected with B. proteus, CD50. In kind it is in vivo. Particulars: Mus musculus. How it is done:
as §1, §2, §3
(§4) The compounds of the invention also show effectiveness against other gram-negative bacteria.

The test system of assay [11] is Klebsiella pneumoniae. Kind of assay: Mice infected with Klebsiella pneumoniae, CD50. The format is in vivo. How it is done:
as §1, §2, §3, §4

Setting [12] is: sc, Table II, infected mice, E. coli, s.c., read-out: DC50 (the source's name).
Setting [13] is: po, Table I, mice infected with E. coli, p.o., R4 = sodium, read-out: CD50 (the source's name).
The mark [14] stands for this setting: sc, Table I, mice infected with E. coli, s.c., R4 = sodium, read-out: CD50 (the source's name).

≈ marks a conversion by molar mass, not a printed value. Where two headings read alike, the source gives them in different places.

A word on the MIC: it is the lowest concentration found to suppress growth. A low value points to a more susceptible organism. For the molecule `CCCS(=O)(=O)N1N=Cc2cc(F)ccc2B1O` [Compound 11], the ED50 came to 6.95 mg/kg in assay [1] (po, read-out: DC50); 5.65 mg/kg in assay [1] (setting [12]); 13.9 mg/kg in assay [2] (po); 7.45 mg/kg in [2] (sc); 13.9 mg/kg in [3] (po); 7.45 mg/kg in [3] (sc). Further, the ED50 in [4] (po) turned out to be 5.65 mg/kg; in assay [4] (sc) it was 4.25 mg/kg. In addition, the MIC came to 4 µg/mL (≈ 14.8 µM) in assay [5]; 4 µg/mL (≈ 14.8 µM) in [6]; 4 µg/mL (≈ 14.8 µM) in assay [7]; 8 µg/mL (≈ 29.6 µM) in [8]; 8 µg/mL (≈ 29.6 µM) in assay [9].

On to `CCc1ccc2c(c1)C=NN(S(=O)(=O)CCCCl)B2O` [CH2CH2CH2Cl, C2 H5], for which the MIC in assay [5] is 4 µg/mL (≈ 12.7 µM); in [6], 2 µg/mL (≈ 6.36 µM); in assay [7], 4 µg/mL (≈ 12.7 µM); in assay [8], 2 µg/mL (≈ 6.36 µM); in assay [9], 2 µg/mL (≈ 6.36 µM).

Regarding `C=CCS(=O)(=O)N1N=Cc2ccccc2B1O` [Compound 6], the ED50 in [1] (setting [13]) and in assay [1] (setting [14]) was 13.2 mg/kg in each case.

In the case of `CCCCCS(=O)(=O)N1N=Cc2ccccc2B1O` [(CH2)4CH3, H], the MIC in assay [5] was found to be 32 µg/mL (≈ 114 µM); in assay [6], 32 µg/mL (≈ 114 µM); in assay [7] it was 32 µg/mL (≈ 114 µM); in [8] it was 8 µg/mL (≈ 28.6 µM); in assay [9] it was 16 µg/mL (≈ 57.1 µM).

As to `CCCS(=O)(=O)N1N=Cc2cc(CC)ccc2B1O` [CH2CH2CH3, C2 H5], the MIC in assay [5] was found to be 4 µg/mL (≈ 14.3 µM); in [6], 8 µg/mL (≈ 28.6 µM); in [7] it was 2 µg/mL (≈ 7.14 µM); in assay [8], 1 µg/mL (≈ 3.57 µM); in assay [9], 2 µg/mL (≈ 7.14 µM).

With `O=S(=O)(CCCCl)N1N=Cc2ccccc2B1O` [Compound 9], the values for the ED50 in [1] (setting [13]) and in [1] (setting [14]) were 22.7 mg/kg and 21.8 mg/kg, respectively.

As to `CC(C)CS(=O)(=O)N1N=Cc2ccccc2B1O` [drawing 4], the MIC in [5] was 8 µg/mL (≈ 30.1 µM); in [6], 16 µg/mL (≈ 60.1 µM); in assay [7], 16 µg/mL (≈ 60.1 µM); in [8], 4 µg/mL (≈ 15 µM); in [9] it was 4 µg/mL (≈ 15 µM).

With `Cc1ccc2c(c1)C=NN(S(=O)(=O)CCCCl)B2O` [Compound 10], the ED50 in assay [1] (po, read-out: DC50) was found to be 9.8 mg/kg; in [1] (setting [12]) it was 8.8 mg/kg; in assay [2] (po), 9.15 mg/kg; in assay [2] (sc), 7.45 mg/kg; in assay [3] (po), 8.6 mg/kg; in assay [3] (sc), 8.4 mg/kg. The results for the ED50 in assay [4] (po) and in assay [4] (sc) were 9.15 mg/kg and 6.95 mg/kg, respectively. Besides, the MIC in assay [5] is 2 µg/mL (≈ 6.65 µM); in [6] it was 4 µg/mL (≈ 13.3 µM); in [7], 4 µg/mL (≈ 13.3 µM); in [8], 1 µg/mL (≈ 3.33 µM); in assay [9], 1 µg/mL (≈ 3.33 µM).

Consider `CCCCS(=O)(=O)N1N=Cc2ccccc2B1O` [Compound 4], for which the ED50 in [1] (setting [13]) was found to be 11.2 mg/kg; in [1] (setting [14]) it was 5.85 mg/kg.

As for `CCS(=O)(=O)N1N=Cc2ccccc2B1O` [Compound 1], the ED50 in assay [1] (setting [13]) turned out to be 11 mg/kg; in assay [1] (setting [14]), 9.8 mg/kg.

Consider `CC(C)CS(=O)(=O)N1N=Cc2ccccc2B1O` [drawing 2], for which the ED50 is 8.85 mg/kg in assay [1] (po, read-out: CD50) and 10.6 mg/kg in assay [1] (sc, read-out: CD50).

Consider `O=S(=O)(CCCCl)N1N=Cc2cc(F)ccc2B1O` [CH2CH2CH2 Cl, F], for which the MIC in assay [5] turned out to be 16 µg/mL (≈ 52.5 µM); in assay [6], 16 µg/mL (≈ 52.5 µM); in assay [7], 8 µg/mL (≈ 26.3 µM); in assay [8] it was 8 µg/mL (≈ 26.3 µM); in assay [9] it was 4 µg/mL (≈ 13.1 µM).

For `CC(Cl)S(=O)(=O)N1N=Cc2ccccc2B1O` (stereo not shown) [Compound 8], the ED50 in assay [1] (setting [13]) is 17.7 mg/kg; in [1] (setting [14]) it was 14.8 mg/kg.

Turning to `O=S(=O)(CCl)N1N=Cc2ccccc2B1O` [Compound 7], the ED50 in [1] (setting [13]) came out at 12.4 mg/kg; in assay [1] (setting [14]) it was 11.8 mg/kg.

As to `CC(C)S(=O)(=O)N1N=Cc2ccccc2B1O` [Compound 3], the results for the ED50 in [1] (setting [13]) and in [1] (setting [14]) were 12.5 mg/kg and 9.2 mg/kg, respectively.

For `CCCS(=O)(=O)N1N=Cc2ccccc2B1O` [Compound 2], the ED50 in assay [1] (setting [13]) came out at 7 mg/kg; in [1] (setting [14]), 6.7 mg/kg; in assay [10] (per oral (p.o.)), 18.7 mg/kg; in assay [10] (sc, subcutaneous (s.c.)), 11.7 mg/kg; in assay [11] (po), 11.3 mg/kg; in assay [11] (sc) it was 6.75 mg/kg. Moreover, the MIC came to 4 µg/mL (≈ 15.9 µM) in [5]; 32 µg/mL (≈ 127 µM) in assay [6]; 32 µg/mL (≈ 127 µM) in [7]; 8 µg/mL (≈ 31.7 µM) in [8]; 16 µg/mL (≈ 63.5 µM) in assay [9].

As to `Nc1ccc(S(=O)(=O)N2N=Cc3ccccc3B2O)c(Cl)c1` [1-hydroxy-2(2'-chloro-4'-amino-phenylsulfonyl) benzo-2,3,1-diazaborine, reference compound], the ED50 was determined as 36 mg/kg in assay [1] (po, Table IV, comparative, E. coli, p.o., read-out: CD50 (the source's name)) and 13.5 mg/kg in assay [1] (sc, Table IV, comparative, E. coli, s.c., read-out: CD50 (the source's name)).

On to `Cc1ccc2c(c1)C=NN(S(=O)(=O)CC(C)C)B2O`, for which the MIC in assay [5] was found to be 2 µg/mL (≈ 7.14 µM); in assay [6], 8 µg/mL (≈ 28.6 µM); in assay [7], 4 µg/mL (≈ 14.3 µM); in assay [8] it was 2 µg/mL (≈ 7.14 µM); in assay [9] it was 8 µg/mL (≈ 28.6 µM).
